In publication PMC8604788 (ACS chemical biology, 2021):

Target: T1, proline utilization A (SmPutA), bifunctional PRODH-GSALDH enzyme (Sinorhizobium meliloti, UniProt F7X6I3)
T1 sequence (F7X6I3 1-1233): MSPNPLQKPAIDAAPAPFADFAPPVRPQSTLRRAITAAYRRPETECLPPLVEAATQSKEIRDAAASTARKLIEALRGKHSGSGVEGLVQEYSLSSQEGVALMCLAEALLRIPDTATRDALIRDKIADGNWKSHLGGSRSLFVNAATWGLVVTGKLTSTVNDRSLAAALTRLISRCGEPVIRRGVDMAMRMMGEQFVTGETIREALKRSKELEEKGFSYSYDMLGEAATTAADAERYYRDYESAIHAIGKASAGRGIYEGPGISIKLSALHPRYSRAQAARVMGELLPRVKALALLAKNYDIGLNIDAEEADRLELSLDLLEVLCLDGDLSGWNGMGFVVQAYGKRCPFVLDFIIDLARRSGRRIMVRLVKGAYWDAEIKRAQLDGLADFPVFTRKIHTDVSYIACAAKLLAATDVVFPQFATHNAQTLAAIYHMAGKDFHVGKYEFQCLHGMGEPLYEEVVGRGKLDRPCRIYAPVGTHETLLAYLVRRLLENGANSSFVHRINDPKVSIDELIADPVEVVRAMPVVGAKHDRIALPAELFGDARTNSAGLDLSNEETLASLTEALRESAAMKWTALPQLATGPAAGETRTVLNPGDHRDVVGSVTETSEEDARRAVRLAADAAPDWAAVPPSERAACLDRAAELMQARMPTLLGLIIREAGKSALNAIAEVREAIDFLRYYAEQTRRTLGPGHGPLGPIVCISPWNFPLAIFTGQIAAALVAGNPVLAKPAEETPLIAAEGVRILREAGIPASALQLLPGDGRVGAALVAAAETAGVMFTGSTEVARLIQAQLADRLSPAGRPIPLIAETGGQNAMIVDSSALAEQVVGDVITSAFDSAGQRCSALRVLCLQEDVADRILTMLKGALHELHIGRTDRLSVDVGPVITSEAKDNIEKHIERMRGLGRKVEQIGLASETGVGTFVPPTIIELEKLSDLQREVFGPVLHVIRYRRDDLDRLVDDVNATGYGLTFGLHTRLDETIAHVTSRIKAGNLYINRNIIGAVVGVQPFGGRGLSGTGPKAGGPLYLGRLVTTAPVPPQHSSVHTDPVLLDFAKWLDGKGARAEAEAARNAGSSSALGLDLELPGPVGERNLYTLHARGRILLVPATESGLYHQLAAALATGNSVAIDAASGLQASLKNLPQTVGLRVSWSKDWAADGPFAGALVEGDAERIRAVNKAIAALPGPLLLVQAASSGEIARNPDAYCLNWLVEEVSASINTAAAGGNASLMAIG
Test: X-ray crystal structures, noncovalent in the dark
Type: biochemical

O=C(O)C1SCCS1 [compound 4, 1,3-dithiolane-2-carboxylic acid]
IC50: 22.4 µM
